Reference: ChEMBL document CHEMBL5365526 (J Med Chem, 2023)
The source made the active and inactive calls. The calls are words filed in the database; no cut-off is given here.

Assays:
[1] = target: T1, von Hippel-Lindau disease tumor suppressor/Mitogen-activated protein kinase 7 (Homo sapiens, UniProt Q13164+P40337); test: PROTAC activity at VHL/ERK5 in human A-375 cells assessed as maximal induction of ERK5 degradation incubated for 12 hrs by western blot analysis relative to control; assay type: cell-based
Target sequence in this assay (P40337 whole entry partner): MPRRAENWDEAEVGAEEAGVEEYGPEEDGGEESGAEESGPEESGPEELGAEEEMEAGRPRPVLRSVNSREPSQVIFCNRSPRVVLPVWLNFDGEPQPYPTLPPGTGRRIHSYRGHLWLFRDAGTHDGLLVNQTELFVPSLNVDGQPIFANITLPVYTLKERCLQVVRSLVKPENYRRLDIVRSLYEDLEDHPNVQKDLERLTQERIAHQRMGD
Target sequence in this assay (Q13164 2-816 limits assumed): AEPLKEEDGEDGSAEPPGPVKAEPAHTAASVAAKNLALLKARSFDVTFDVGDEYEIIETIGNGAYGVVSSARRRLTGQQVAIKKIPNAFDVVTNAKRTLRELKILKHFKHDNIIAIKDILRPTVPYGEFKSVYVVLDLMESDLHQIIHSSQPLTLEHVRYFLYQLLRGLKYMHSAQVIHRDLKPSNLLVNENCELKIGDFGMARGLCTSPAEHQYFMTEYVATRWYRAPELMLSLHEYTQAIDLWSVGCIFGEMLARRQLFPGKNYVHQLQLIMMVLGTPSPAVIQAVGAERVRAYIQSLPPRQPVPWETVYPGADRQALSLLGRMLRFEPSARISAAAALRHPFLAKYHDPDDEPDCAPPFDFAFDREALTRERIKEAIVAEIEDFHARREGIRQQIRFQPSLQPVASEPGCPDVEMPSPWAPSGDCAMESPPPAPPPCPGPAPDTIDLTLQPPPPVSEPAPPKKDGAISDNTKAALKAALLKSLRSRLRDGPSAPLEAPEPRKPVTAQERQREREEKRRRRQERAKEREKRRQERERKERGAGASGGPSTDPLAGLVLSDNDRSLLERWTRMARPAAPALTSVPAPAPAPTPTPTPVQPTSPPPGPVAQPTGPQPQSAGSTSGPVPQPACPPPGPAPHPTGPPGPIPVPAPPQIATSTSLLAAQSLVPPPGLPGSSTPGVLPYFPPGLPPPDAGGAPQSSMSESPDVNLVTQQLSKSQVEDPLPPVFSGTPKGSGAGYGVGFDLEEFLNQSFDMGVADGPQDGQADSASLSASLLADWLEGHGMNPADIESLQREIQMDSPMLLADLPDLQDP

[2] = target: von Hippel-Lindau disease tumor suppressor/Leucine-rich repeat serine/threonine-protein kinase 2 (Homo sapiens) (UniProt Q5S007+P40337); test: PROTAC activity at VHL/LRRK2 in human A-375 cells assessed as induction of LRRK2 degradation at 6 to 500 nM incubated for 12 hrs by western bot analysis; assay type: cell-based; details: dose 6-500 nM
[3] = target: T1, von Hippel-Lindau disease tumor suppressor/Mitogen-activated protein kinase 7; test: PROTAC activity at VHL/ERK5 in human HepG2 cells assessed as maximal induction of ERK5 degradation incubated for 12 hrs by western blot analysis relative to control; assay type: cell-based
Target sequence in this assay (P40337 whole entry partner): as the sequence (P40337 whole entry partner) above
Target sequence in this assay (Q13164 2-816 limits assumed): as the sequence (Q13164 2-816 limits assumed) above

A-375 [4] = test: Effect on GDC0994-induced antitumor activity against human A-375 cells assessed as reduction in cell viability at 200 nM incubated for 72 hrs by CCK8 assay; assay type: functional, cell-based
[5] = Inhibition of M2 macrophage development in PMA-differentiated human THP-1 cells assessed as CD206 surface expression at 0.5 uM incubated for 48 hrs by flow cytometry (reference value: 53.4%); assay type: functional; parameters: scale not given: the % may be the effect or the level left
[6] = target: T1, von Hippel-Lindau disease tumor suppressor/Mitogen-activated protein kinase 7; test: PROTAC activity at VHL/ERK5 in human A-375 cells assessed as induction of ERK5 degradation at 100 nM incubated for 24 hrs by western blot analysis; assay type: cell-based
Target sequence in this assay (P40337 whole entry partner): as the sequence (P40337 whole entry partner) above
Target sequence in this assay (Q13164 2-816 limits assumed): as the sequence (Q13164 2-816 limits assumed) above

[7] = target: T1, von Hippel-Lindau disease tumor suppressor/Mitogen-activated protein kinase 7; test: PROTAC activity at VHL/ERK5 in human A-375 cells assessed as induction of ERK5 degradation at 200 nM pretreated for 1 hr with proteasome inhibitor, MG132 followed by incubation with compound for 12 hrs by western blot analysis; assay type: cell-based
Target sequence in this assay (P40337 whole entry partner): as the sequence (P40337 whole entry partner) above
Target sequence in this assay (Q13164 2-816 limits assumed): as the sequence (Q13164 2-816 limits assumed) above

HCT-116 [8] = test: Inhibition of cell colony formation in human HCT-116 cells at 0.5 uM cultured in 8% FBS and measured after 7 days in presence of LPS by crystal violet staining based analysis; assay type: functional; details: time 7.0 day
A-375 [9] = test: Effect on mirdametinib-induced antitumor activity against human A-375 cells assessed as reduction in cell viability at 200 nM incubated for 72 hrs by CCK8 assay; assay type: functional, cell-based
MDA-MB-231 = test: Antiproliferative activity against human MDA-MB-231 cells assessed as reduction in cell viability incubated for 72 hrs by CCK8 assay; assay type: functional, cell-based
[10] = target: von Hippel-Lindau disease tumor suppressor/Bromodomain-containing protein 4 (Homo sapiens) (UniProt O60885+P40337); test: PROTAC activity at VHL/BRD4 in human A-375 cells assessed as induction of BRD4 degradation at 6 to 500 nM incubated for 12 hrs by western bot analysis; assay type: cell-based; details: dose 6-500 nM
[11] = target: T2, Mitogen-activated protein kinase 7 (Homo sapiens, UniProt Q13164); test: Inhibition of ERK5 (unknown origin) by ADP-Glo kinase assay
Target sequence in this assay (Q13164 whole entry): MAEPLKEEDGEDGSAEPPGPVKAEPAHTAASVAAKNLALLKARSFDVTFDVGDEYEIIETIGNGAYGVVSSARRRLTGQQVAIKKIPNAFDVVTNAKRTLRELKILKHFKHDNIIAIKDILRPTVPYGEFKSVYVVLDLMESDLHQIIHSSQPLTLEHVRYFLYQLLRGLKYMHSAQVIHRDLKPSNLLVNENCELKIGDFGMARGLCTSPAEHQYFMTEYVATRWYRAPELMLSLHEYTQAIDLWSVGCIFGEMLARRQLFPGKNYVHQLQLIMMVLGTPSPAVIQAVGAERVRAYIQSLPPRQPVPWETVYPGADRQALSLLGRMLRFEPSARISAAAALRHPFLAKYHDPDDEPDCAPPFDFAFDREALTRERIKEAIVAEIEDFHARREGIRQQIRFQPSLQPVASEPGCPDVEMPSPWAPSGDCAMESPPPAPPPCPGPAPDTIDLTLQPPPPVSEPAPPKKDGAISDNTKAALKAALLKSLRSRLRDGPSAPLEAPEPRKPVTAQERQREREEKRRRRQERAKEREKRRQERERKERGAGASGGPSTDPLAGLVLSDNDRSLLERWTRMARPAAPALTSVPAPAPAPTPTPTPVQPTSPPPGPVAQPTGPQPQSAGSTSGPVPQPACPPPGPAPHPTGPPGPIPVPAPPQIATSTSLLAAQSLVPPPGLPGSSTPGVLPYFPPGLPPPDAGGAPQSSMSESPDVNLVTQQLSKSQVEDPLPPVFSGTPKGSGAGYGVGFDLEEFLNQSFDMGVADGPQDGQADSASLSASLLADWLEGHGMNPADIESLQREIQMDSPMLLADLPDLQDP

HCT-116 [12] = test: Effect on GDC0994-induced antitumor activity against human HCT-116 cells assessed as reduction in cell viability at 200 nM incubated for 72 hrs by CCK8 assay; assay type: functional, cell-based
[13] = target: T1, von Hippel-Lindau disease tumor suppressor/Mitogen-activated protein kinase 7; test: PROTAC activity at VHL/ERK5 in human A-375 cells assessed as induction of ERK5 degradation at 200 nM incubated for 2 to 4 hrs by western blot analysis; assay type: cell-based; details: time 2-4 hrs
Target sequence in this assay (P40337 whole entry partner): as the sequence (P40337 whole entry partner) above
Target sequence in this assay (Q13164 2-816 limits assumed): as the sequence (Q13164 2-816 limits assumed) above

A-375 [14] = test: Effect on dabrafenib-induced antitumor activity against human A-375 cells assessed as reduction in cell viability at 200 nM incubated for 72 hrs by CCK8 assay; assay type: functional, cell-based
HCT-116 [15] = test: Effect on dabrafenib-induced antitumor activity against human HCT-116 cells assessed as reduction in cell viability at 200 nM incubated for 72 hrs by CCK8 assay; assay type: functional, cell-based
A-375 [16] = test: Effect on ERK5 mRNA expression in human A-375 cells at 10 to 1000 nM incubated for 24 hrs by real-time PCR analysis; assay type: functional, cell-based; details: dose 10-1000 nM
HCT-116 [17] = test: Inhibition of M2 macrophage development in human HCT-116 cells assessed as inhibition of cell colony formation at 0.5 uM cultured in specific M2 medium and measured after 7 days in presence of LPS by crystal violet staining based analysis; assay type: functional; details: time 7.0 day
A-375 [18] = test: Effect on vemurafenib-induced antitumor activity against human A-375 cells assessed as reduction in cell viability at 200 nM incubated for 72 hrs by CCK8 assay; assay type: functional, cell-based
NCI-H1975 = test: Antiproliferative activity against human NCI-H1975 cells assessed as reduction in cell viability incubated for 72 hrs by CCK8 assay; assay type: functional, cell-based
[19] = target: T1, von Hippel-Lindau disease tumor suppressor/Mitogen-activated protein kinase 7; test: PROTAC activity at VHL/ERK5 in human MDA-MB-231 cells assessed as maximal induction of ERK5 degradation incubated for 12 hrs by western blot analysis relative to control; assay type: cell-based
Target sequence in this assay (P40337 whole entry partner): as the sequence (P40337 whole entry partner) above
Target sequence in this assay (Q13164 2-816 limits assumed): as the sequence (Q13164 2-816 limits assumed) above

[20] = target: von Hippel-Lindau disease tumor suppressor/Serine/threonine-protein kinase DCLK1 (Homo sapiens) (UniProt O15075+P40337); test: PROTAC activity at VHL/DCLK1 in human A-375 cells assessed as induction of DCLK1 degradation at 6 to 500 nM incubated for 12 hrs by western bot analysis; assay type: cell-based; details: dose 6-500 nM
[21] = target: T1, von Hippel-Lindau disease tumor suppressor/Mitogen-activated protein kinase 7; test: PROTAC activity at VHL/ERK5 in human A-375 cells assessed as induction of ERK5 degradation at 1.1 microM incubated for 12 hrs by western blot analysis; assay type: cell-based
HCT-116 [22] = test: Effect on mirdametinib-induced antitumor activity against human HCT-116 cells assessed as reduction in cell viability at 200 nM incubated for 72 hrs by CCK8 assay; assay type: functional, cell-based
HCT-116 [23] = test: Effect on trametinib-induced antitumor activity against human HCT-116 cells assessed as reduction in cell viability at 200 nM incubated for 72 hrs by CCK8 assay; assay type: functional, cell-based
[24] = target: T1, von Hippel-Lindau disease tumor suppressor/Mitogen-activated protein kinase 7; test: PROTAC activity at VHL/ERK5 in human HCT-116 cells assessed as maximal induction of ERK5 degradation incubated for 12 hrs by western blot analysis relative to control; assay type: cell-based
[25] = target: T1, von Hippel-Lindau disease tumor suppressor/Mitogen-activated protein kinase 7; test: PROTAC activity at VHL/ERK5 in human HepG2 cells assessed as induction of ERK5 degradation incubated for 12 hrs by western blot analysis; assay type: cell-based
Target sequence in this assay (Q13164 whole entry): as the sequence (Q13164 whole entry) above
Target sequence in this assay (P40337 whole entry): as the sequence (P40337 whole entry partner) above

[26] = target: T1, von Hippel-Lindau disease tumor suppressor/Mitogen-activated protein kinase 7; test: PROTAC activity at VHL/ERK5 in human HCT-116 cells assessed as induction of ERK5 degradation at 200 nM incubated for 48 hrs by western blot analysis; assay type: cell-based
[27] = target: T1, von Hippel-Lindau disease tumor suppressor/Mitogen-activated protein kinase 7; test: PROTAC activity at VHL/ERK5 in human MDA-MB-231 cells assessed as induction of ERK5 degradation incubated for 12 hrs by western blot analysis; assay type: cell-based
Target sequence in this assay (Q13164 whole entry): as the sequence (Q13164 whole entry) above
Target sequence in this assay (P40337 whole entry): as the sequence (P40337 whole entry partner) above

[28] = target: T2, Mitogen-activated protein kinase 7; test: Inhibition of ERK5 (unknown origin) at 0.5 uM by kinase profiling analysis
Target sequence in this assay (Q13164 2-816 limits assumed): as the sequence (Q13164 2-816 limits assumed) above

[29] = target: T1, von Hippel-Lindau disease tumor suppressor/Mitogen-activated protein kinase 7; test: PROTAC activity at VHL/ERK5 in human A-375 cells assessed as induction of ERK5 degradation at 200 nM incubated for 72 hrs by western blot analysis; assay type: cell-based
A-375 [30] = test: Antiproliferative activity against human A-375 cells assessed as reduction in cell viability incubated for 72 hrs by CCK8 assay; assay type: functional, cell-based
[31] = target: T1, von Hippel-Lindau disease tumor suppressor/Mitogen-activated protein kinase 7; test: PROTAC activity at VHL/ERK5 in human PC-3 cells assessed as maximal induction of ERK5 degradation incubated for 12 hrs by western blot analysis relative to control; assay type: cell-based
[32] = target: T1, von Hippel-Lindau disease tumor suppressor/Mitogen-activated protein kinase 7; test: PROTAC activity at VHL/ERK5 in human PC-3 cells assessed as induction of ERK5 degradation incubated for 12 hrs by western blot analysis; assay type: cell-based
Target sequence in this assay (Q13164 whole entry): as the sequence (Q13164 whole entry) above
Target sequence in this assay (P40337 whole entry): as the sequence (P40337 whole entry partner) above

Sequence of von Hippel-Lindau disease tumor suppressor/Serine/threonine-protein kinase DCLK1 (Homo sapiens) (O15075 whole entry, looked up): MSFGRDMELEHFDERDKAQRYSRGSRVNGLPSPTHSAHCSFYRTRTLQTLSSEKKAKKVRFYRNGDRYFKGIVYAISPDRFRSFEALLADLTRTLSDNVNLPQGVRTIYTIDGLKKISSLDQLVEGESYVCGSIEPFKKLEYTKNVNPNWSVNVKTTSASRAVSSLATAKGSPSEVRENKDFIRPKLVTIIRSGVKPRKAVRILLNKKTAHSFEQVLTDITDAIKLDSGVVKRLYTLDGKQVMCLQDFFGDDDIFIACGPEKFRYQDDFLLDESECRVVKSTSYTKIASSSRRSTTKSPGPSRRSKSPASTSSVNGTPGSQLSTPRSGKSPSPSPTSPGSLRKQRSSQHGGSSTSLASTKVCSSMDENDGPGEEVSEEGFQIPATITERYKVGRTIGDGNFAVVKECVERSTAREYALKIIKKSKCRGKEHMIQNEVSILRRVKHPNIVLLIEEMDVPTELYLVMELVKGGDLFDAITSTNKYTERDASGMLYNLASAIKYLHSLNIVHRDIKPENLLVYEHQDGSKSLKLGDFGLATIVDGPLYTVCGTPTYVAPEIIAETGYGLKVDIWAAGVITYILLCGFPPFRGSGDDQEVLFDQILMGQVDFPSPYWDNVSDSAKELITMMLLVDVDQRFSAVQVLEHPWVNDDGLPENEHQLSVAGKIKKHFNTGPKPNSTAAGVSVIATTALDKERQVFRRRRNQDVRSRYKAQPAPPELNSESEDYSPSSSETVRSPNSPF
Sequence of von Hippel-Lindau disease tumor suppressor/Serine/threonine-protein kinase DCLK1 (Homo sapiens) (P40337 whole entry, looked up): as the sequence (P40337 whole entry partner) above
Sequence of von Hippel-Lindau disease tumor suppressor/Bromodomain-containing protein 4 (Homo sapiens) (P40337 whole entry, looked up, other chains not shown): as the sequence (P40337 whole entry partner) above

COc1cc(N2CCN(CCCCCCC(=O)N[C@H](C(=O)N3C[C@H](O)C[C@H]3C(=O)N[C@@H](C)c3ccc(-c4scnc4C)cc3)C(C)(C)C)CC2)ccc1Nc1ncc2c(n1)N(C)c1ccccc1C(=O)N2C
Activity [1]: 91.4%
Activity [2]: inactive
Activity [3]: 92.7%
Activity (A-375 [4]): inactive
Activity [5]: 41.3%
Activity [6]: Active
Activity [7]: inactive
inhibition (HCT-116 [8]): inactive
Activity (A-375 [9]): inactive
Activity (MDA-MB-231): inactive
Activity [10]: inactive
IC50 [11]: 62.4 nM
Activity (HCT-116 [12]): inactive
Activity [13]: Active
Activity (A-375 [14]): inactive
Activity (HCT-116 [15]): inactive
Activity (A-375 [16]): inactive
inhibition (HCT-116 [17]): Active
Activity (A-375 [18]): inactive
Activity (NCI-H1975): inactive
Activity [19]: 86.7%
Activity [20]: inactive
Activity [21]: inactive
Activity (HCT-116 [22]): inactive
Activity (HCT-116 [23]): inactive
Activity [24]: 88.9%
DC50 [25]: 13.7 nM
Activity [26]: Active
DC50 [27]: 22.7 nM
inhibition [28]: Active
Activity [29]: Active
Activity (A-375 [30]): inactive
Activity [31]: 89.4%
DC50 [32]: 23.5 nM
